According to patent publication US6297230A, “Cyanoaziridines for treating cancer” (priority 2000, dated 2001):
Converted amounts (≈) assume the structure as drawn. Read-outs that look alike come from different tables or passages of the source.

Legend:
[1] = test system: L-1210 leukemia cells (sensitive); test: MTT growth inhibition, sensitive L-1210 leukemia cells; assay type: cell-based, mouse; details: Mus musculus, L1210, 192 h
Description: Tumors are disaggregated into single cell suspensions using mechanical, hypoosmotic, and/or enzymatic (trypsin) methods. The cells are plated at a concentration of 3-5×10^4 per […] well into plastic 96-well plates. Growth medium containing 5-10% (vol/vol) heat-inactivated fetal bovine serum and penicillin/streptomycin (both […]) are added prior to incubation at 37° C. for 6 days. Afterwards the medium containing the drug is removed, the cells are centrifuged in fresh medium or phosphate-buffered saline (pH 7.4). A tetrazolium dye, […]-2,5-diphenyl tetrazolium (MTT), is then added. (Mossman, T., J Immunol 65:55-63, 1983.) This dye forms a colored formazan product upon activation by mitochondrial reductases in viable cells. Typically, the formazan product is solubilized in acid-propanol or DMSO. The intensity of the color is proportional to viable cell numbers and this is quantitated by spectrophotometric absorbance at 570 nm on a micro ELISA plate reader. The results are calibrated in % control absorbance from untreated tumor cells. (Alley, et al., Cancer Res 48:589-601, 1988.) […]
Murine L-1210 Leukemia Cells were first described by Law, et al. from a female DBA/2 mouse exposed to topical methylcholanthrene. (Law, et al., J Natl Cancer Inst 10:179-192, 1949.) The cells represent a lymphocytic lineage and are highly tumorigenic in syngeneic DBA/2 mice, producing lethality typically 10-14 days after inoculation. This cell line has been used extensively to characterize the antitumor activity of chemotherapeutic agents. (Goldin, et al., Cancer Res (Cancer Chemotherapy Screening Data IX) 21:27-92, 1961.) The L-1210 cells have a model 40-41 chromosomes and a very high plating efficiency in suspension cultures in vitro.
(§1) *Drug continuously present for 8 days; IC50 measured by MTT dye

8226/S myeloma cells = test: MTT growth inhibition, parental 8226 myeloma cells; assay type: cell-based, human
Description: (§2) Microculture Tetrazolium (MTT) Assay for Tumor Cells
(§3) Tumors are disaggregated into single cell suspensions using mechanical, hypoosmotic, and/or enzymatic (trypsin) methods. The cells are plated at a concentration of 3-5×10^4 per […] well into plastic 96-well plates. Growth medium containing 5-10% (vol/vol) heat-inactivated fetal bovine serum and penicillin/streptomycin (both […]) are added prior to incubation at 37° C. for 6 days. Afterwards the medium containing the drug is removed, the cells are centrifuged in fresh medium or phosphate-buffered saline (pH 7.4). A tetrazolium dye, […]-2,5-diphenyl tetrazolium (MTT), is then added. (Mossman, T., J Immunol 65:55-63, 1983.) This dye forms a colored formazan product upon activation by mitochondrial reductases in viable cells. Typically, the formazan product is solubilized in acid-propanol or DMSO. The intensity of the color is proportional to viable cell numbers and this is quantitated by spectrophotometric absorbance at 570 nm on a micro ELISA plate reader. The results are calibrated in % control absorbance from untreated tumor cells. (Alley, et al., Cancer Res 48:589-601, 1988.)
(§4) The following unpublished studies were performed in vitro to develop and characterize a human myeloma cell line with resistance to imexon-induced cytotoxicity. The original (parental) 8226 cell line was developed by Matsuoka, et al. (Matsuoka, et al., Proc Soc Exp Biol Med 125:1246-1250, 1967). It is a lymphoblastoid cell line which stains for lambda light immunoglobulin production. It grows in vitro in suspension culture (non-adherent) and forms tumors when injected into SCID mice. (Skehan, et al., J Natl Cancer Inst 82:1107-1112, 1990.)
(§5) One exciting feature of our novel compounds is, that they work on imexon-resistant cells. An imexon-resistant 8226 myeloma cell line was selected by continuously exposing cells to gradually increasing concentrations of imexon up to 3.25 mg/mL. This cell line has slightly longer cell doubling time than 8226 sensitive cells (24 vs 20 hours). […] The dose response curve for imexon continuous exposure was determined using MTT assay. Each data point represents the mean of three experiments performed in 8 replicates.
(§6) We compared IC50 concentrations and there is a 4-fold resistance observed for the 8226/I-R cell line when the cells were continuously exposed to imexon for […] at 37° C. The degree of resistance was relatively unstable in the absence of the drug, with the resistant cells losing substantial resistance when maintained in imexon-free medium for 20 weeks (FIG. 2).
(§7) IC50 was measured by MTT assay. IC50 refer to the concentration by drug that results in 50% growth inhibition. A minimum of 2 assays were performed for each drug following 250 mg/mL imexon is equivalent to 6.5 cGy radiation in sensitive cells.
(§8) Using the colorimetric microculture tetrazolium (MTT) assay, imexon and 25-related analogs were studied for tumor growth inhibition in vitro. Imexon-induced DNA single strand breaks were assessed by alkaline elution. Cells were exposed to imexon for 1 hour prior to start of experiment. The fraction of ^14 C-labeled DNA retained on the filter is plotted against the time of elution. The cells included parental 8226 myeloma cells and the 8226 imexon-resistant cells exposed to drug (imexon or analog) continuously for 10 days at 37° C. At the end of the exposure period, the cells were analyzed for viability using the formazan-forming tetrazolium dye (MTT) assay.

8226/I-R myeloma cells = test: MTT growth inhibition, imexon-resistant 8226 myeloma cells; assay type: cell-based, human; details: for Fold Resistance of IC50 R/IC50 's: imexon-resistant vs sensitive 8226; for Cross-resistance of imexon-resistant cells: 8226 imexon-resistant cells
Description: as §2, §3, §4, §5, §6, §7, §8

[2] = test system: L-1210 MDR leukemia cells; test: MTT growth inhibition, multidrug-resistant L-1210 leukemia cells; assay type: cell-based, mouse; details: for IC50: Mus musculus, L1210, 192 h
Description: as §3
In addition, the imexon analogs have also been tested in a multidrug-resistant (MDR) mouse L-1210 leukemia cell line.
L-1210 MDR Cells represent a multidrug-resistant cell line developed for resistance to the alkylating agent mitomycin C. (Dorr, et al., Biochem Pharmacol 36(19):3115-3120, 1987.) This cell line has the same general growth characteristics of the parental line, but is cross-resistant to numerous natural-product based anticancer agents. This includes anthracyclines such as doxorubicin (Adriamycin®) and vinca alkaloids such as vincristine or vinblastine.
as §1

[3] = test system: OVCAR-3 ovarian carcinoma cells; details: clinically relevant concentrations in vitro; cited from earlier work
[4] = test system: L-1210 MDR leukemia cells; details: cited from earlier work
WiDr MITOX cells = details: cited from earlier work
[5] = Homo sapiens, Table 5, Sensitive (parental) 8226, read-out: IC50
[6] = Homo sapiens, Table 5, imexon-resistant 8226, read-out: IC50
[7] = Homo sapiens, 8226/S, MTT, read-out: IC50
[8] = Homo sapiens, 8226/I-R, MTT, read-out: IC50

Compound: N#CC1CN1C(=O)Nc1ccc(Cl)c(Cl)c1 (centres unmarked) [AMP 408, 2-Cyanoaziridine-1-[N-(3,4-dichlorophenyl)]carboxamide]
- IC50 ([1]; Sensitive L-1210, drug continuously present 8 days, read-out: IC50): 0.7 µg/mL (≈ 2.73 µM)
- IC50 (8226/S myeloma cells; [5]): 0.27 µg/mL
- Enhanced potency: decrease in IC50 against myeloma cell growth (8226/S myeloma cells; compared with imexon): > 40%
- IC50 (8226/I-R myeloma cells; [6]): 0.68 µg/mL
- Fold Resistance of IC50 R/IC50 's (8226/I-R myeloma cells; Table 5): 2.5
- Fold Resistance of IC50 's (MDR/S) ([2]; L-1210 MDR vs sensitive, 11520 min): 2.7
- IC50 ([2]; MDR L-1210, drug continuously present 8 days, read-out: IC50): 1.9 µg/mL (≈ 7.42 µM)

Compound: N#CC1CN1C(N)=O (centres unmarked) [AMP 409, 2-cyanoaziridine-1-carboxamide, reference compound]
- IC50 [1]: > 10 µg/mL
- IC50 (8226/S myeloma cells; [5]): 32 µg/mL
- IC50 (8226/I-R myeloma cells; [6]): 48 µg/mL
- Fold Resistance of IC50 R/IC50 's (8226/I-R myeloma cells; Table 5): 1.5
- IC50 [2]: > 10 µg/mL

Compound: N.N.O=C([O-])C1(C(=O)[O-])CCC1.[Pt+2] [Carboplatin, reference compound]
- IC50 (8226/S myeloma cells; 8226/S, MTT, read-out: IC50): 9700 nM
- IC50 (8226/I-R myeloma cells; 8226/I-R, MTT, read-out: IC50): 16000 nM
- Cross-resistance of imexon-resistant cells (8226/I-R myeloma cells; MTT): partial cross-resistance
- Fold Resistance (IC50 resistant cells/IC50 sensitive cells) (8226/I-R myeloma cells; Table 4, 8226/I-R vs 8226/S): 1.65

Compound: N.N.[Cl][Pt][Cl] [Cisplatin, reference compound]
- Resistance of OVCAR-3 [3]: resistant in vitro to clinically relevant concentrations
- IC50 (8226/S myeloma cells; 8226/S, MTT, read-out: IC50): 1100 nM
- IC50 (8226/I-R myeloma cells; 8226/I-R, MTT, read-out: IC50): 2000 nM
- Cross-resistance of imexon-resistant cells (8226/I-R myeloma cells; MTT): partial cross-resistance
- Fold Resistance (IC50 resistant cells/IC50 sensitive cells) (8226/I-R myeloma cells; Table 4, 8226/I-R vs 8226/S): 1.85

Compound: N[C@@H](Cc1ccc(N(CCCl)CCCl)cc1)C(=O)O [Melphalan, reference compound]
- Resistance of OVCAR-3 [3]: resistant in vitro to clinically relevant concentrations
- IC50 (8226/S myeloma cells; Homo sapiens): 62 nM
- IC50 (8226/I-R myeloma cells; Homo sapiens): 5300 nM
- Fold Resistance (IC50 resistant cells/IC50 sensitive cells) (8226/I-R myeloma cells; Table 4, 8226/I-R vs 8226/S): 0.81

Compound: CO[C@@]12[C@H](COC(N)=O)C3=C(C(=O)C(C)=C(N)C3=O)N1C[C@@H]1N[C@@H]12 [Mitomycin C, reference compound]
- IC50 (8226/S myeloma cells; [7]): 66 nM
- Cross-resistance of imexon-resistant cells (8226/I-R myeloma cells; MTT): partial resistance
- IC50 (8226/I-R myeloma cells; [8]): 99 nM
- Fold Resistance (IC50 resistant cells/IC50 sensitive cells) (8226/I-R myeloma cells; human, 8226 myeloma cells): 1.50

Compound: CC[C@]1(O)C[C@H]2CN(CCc3c([nH]c4ccccc34)[C@@](C(=O)OC)(c3cc4c(cc3OC)N(C=O)[C@H]3[C@@](O)(C(=O)OC)[C@H](OC(C)=O)[C@]5(CC)C=CCN6CC[C@]43[C@@H]65)C2)C1 [Vincristine, reference compound]
- Cross-resistance of L-1210 MDR [4]: cross-resistant
- IC50 (8226/S myeloma cells; [7]): 2.8 nM
- Cross-resistance of imexon-resistant cells (8226/I-R myeloma cells; MTT): remains sensitive
- IC50 (8226/I-R myeloma cells; [8]): 2.4 nM
- Fold Resistance (IC50 resistant cells/IC50 sensitive cells) (8226/I-R myeloma cells; Table 4, 8226/I-R vs 8226/S): 0.88
- Fold resistance of WiDr MITOX cells (WiDr MITOX cells): 2 fold

Compound: O=C1c2c(O)ccc(O)c2C(=O)c2c(NCCNCCO)ccc(NCCNCCO)c21 [mitoxantrone]
- Fold resistance of WiDr MITOX cells (WiDr MITOX cells): 21 fold

Compound: CC[C@]1(O)C[C@@H]2CN(CCc3c([nH]c4ccccc34)[C@@](C(=O)OC)(c3cc4c(cc3OC)N(C)[C@H]3[C@@](O)(C(=O)OC)[C@H](OC(C)=O)[C@]5(CC)C=CCN6CC[C@]43[C@@H]65)C2)C1 [vinblastine]
- Cross-resistance of L-1210 MDR [4]: cross-resistant

Compound: Bleomycin [reference compound]
- IC50 (8226/S myeloma cells; 8226/S, MTT, bleomycin): 7.0 µg/mL
- IC50 (8226/I-R myeloma cells; 8226/I-R, MTT, bleomycin): 7.8 µg/mL
- Cross-resistance of imexon-resistant cells (8226/I-R myeloma cells; MTT): remains sensitive
- Fold Resistance (IC50 resistant cells/IC50 sensitive cells) (8226/I-R myeloma cells; Table 4, 8226/I-R vs 8226/S): 1.11
